Patent US9944646B2, “Bicyclic azaheterocyclobenzylamines as PI3K inhibitors” (Incyte Corporation, priority 2012, dated 2018)

target: PI3Kδ (Homo sapiens (Human), UniProt O00329); assay: PI3K Enzyme Assay (Example A2), [γ-33P]ATP filter plate; type: biochemical
Method: Example A2: PI3K Enzyme Assay
Lipid kinase substrate, phosphoinositol-4,5-bisphosphate (PIP2), are purchased from Echelon Biosciences (Salt Lake City, Utah). PI3K isoforms α, β, δ and γ are purchased from Millipore (Bedford, Mass.). ATP, MgCl2, DTT, EDTA, MOPS and CHAPS are purchased from Sigma-Aldrich (St. Louis, Mo.).
The kinase reaction are conducted in clear-bottom 96-well plate from Thermo Fisher Scientific in a final volume of 24 μL. Inhibitors are first diluted serially in DMSO and added to the plate wells before the addition of other reaction components. The final concentration of DMSO in the assay is 0.5%. The PI3K assays are carried out at room temperature in 20 mM MOPS, pH 6.7, 10 mM MgCl2, 5 mM DTT and CHAPS 0.03%. The reaction mixture is prepared containing 50 µM PIP2, kinase and varying concentration of inhibitors. Reactions are initiated by the addition of ATP containing 2.2 μCi [γ-^33P]ATP to a final concentration of 1000 μM. The final concentration of PI3K isoforms α, β, δ and γ in the assay were 1.3, 9.4, 2.9 and 10.8 nM, respectively. Reactions are incubated for 180 minutes and terminated by the addition of 100 μL of 1 M potassium phosphate pH 8.0, 30 mM EDTA quench buffer. A 100 μL aliquot of the reaction solution are then transferred to 96-well Millipore MultiScreen IP […] PVDF filter plate (The filter plate is prewetted with 200 μL 100% ethanol, distilled water, and 1 M potassium phosphate pH 8.0, respectively). The filter plate is aspirated on a Millipore Manifold under vacuum and washed with 18×200 μL wash buffer containing 1 M potassium phosphate pH 8.0 and 1 mM ATP. After drying by aspiration and blotting, the plate is air dried in an incubator at 37° C. overnight. Packard TopCount adapter (Millipore) is then attached to the plate followed with addition of 120 μL Microscint 20 scintillation cocktail (Perkin Elmer) in each well. After the plate sealing, the radioactivity of the product is determined by scintillation counting on Topcount (Perkin-Elmer). IC50 determination is performed by fitting the curve of percent control activity versus the log of the inhibitor concentration using the GraphPad Prism 3.0 software.

Chain of PI3Kδ (O00329 whole entry): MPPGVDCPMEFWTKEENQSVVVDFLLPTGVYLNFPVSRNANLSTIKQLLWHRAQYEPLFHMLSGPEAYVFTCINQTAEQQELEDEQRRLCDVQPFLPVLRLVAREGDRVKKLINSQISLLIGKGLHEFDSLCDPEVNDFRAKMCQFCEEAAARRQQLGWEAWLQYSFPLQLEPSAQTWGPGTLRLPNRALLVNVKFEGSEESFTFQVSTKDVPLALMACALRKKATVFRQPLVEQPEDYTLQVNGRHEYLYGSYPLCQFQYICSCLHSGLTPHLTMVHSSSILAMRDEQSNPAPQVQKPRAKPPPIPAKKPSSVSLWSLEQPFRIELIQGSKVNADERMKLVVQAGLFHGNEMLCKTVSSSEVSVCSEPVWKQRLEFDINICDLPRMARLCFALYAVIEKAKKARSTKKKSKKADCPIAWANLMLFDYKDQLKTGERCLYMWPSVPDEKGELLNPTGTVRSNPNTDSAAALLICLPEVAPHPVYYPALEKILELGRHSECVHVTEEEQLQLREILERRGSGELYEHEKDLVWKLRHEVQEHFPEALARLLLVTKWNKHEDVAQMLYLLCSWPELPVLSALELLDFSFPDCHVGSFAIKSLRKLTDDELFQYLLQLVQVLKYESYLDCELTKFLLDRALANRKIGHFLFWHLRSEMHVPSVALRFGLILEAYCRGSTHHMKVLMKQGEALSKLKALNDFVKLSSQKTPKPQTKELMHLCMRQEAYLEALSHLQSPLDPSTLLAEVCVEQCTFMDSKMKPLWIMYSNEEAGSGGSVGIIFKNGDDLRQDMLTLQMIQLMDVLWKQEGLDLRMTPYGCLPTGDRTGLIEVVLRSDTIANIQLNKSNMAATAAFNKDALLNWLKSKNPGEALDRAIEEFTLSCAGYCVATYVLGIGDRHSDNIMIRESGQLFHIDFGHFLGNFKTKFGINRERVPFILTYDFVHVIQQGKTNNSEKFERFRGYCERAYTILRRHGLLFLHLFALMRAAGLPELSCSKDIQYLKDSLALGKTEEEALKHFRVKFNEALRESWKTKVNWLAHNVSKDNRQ
Chain of PI3Kδ (P27986 whole entry partner): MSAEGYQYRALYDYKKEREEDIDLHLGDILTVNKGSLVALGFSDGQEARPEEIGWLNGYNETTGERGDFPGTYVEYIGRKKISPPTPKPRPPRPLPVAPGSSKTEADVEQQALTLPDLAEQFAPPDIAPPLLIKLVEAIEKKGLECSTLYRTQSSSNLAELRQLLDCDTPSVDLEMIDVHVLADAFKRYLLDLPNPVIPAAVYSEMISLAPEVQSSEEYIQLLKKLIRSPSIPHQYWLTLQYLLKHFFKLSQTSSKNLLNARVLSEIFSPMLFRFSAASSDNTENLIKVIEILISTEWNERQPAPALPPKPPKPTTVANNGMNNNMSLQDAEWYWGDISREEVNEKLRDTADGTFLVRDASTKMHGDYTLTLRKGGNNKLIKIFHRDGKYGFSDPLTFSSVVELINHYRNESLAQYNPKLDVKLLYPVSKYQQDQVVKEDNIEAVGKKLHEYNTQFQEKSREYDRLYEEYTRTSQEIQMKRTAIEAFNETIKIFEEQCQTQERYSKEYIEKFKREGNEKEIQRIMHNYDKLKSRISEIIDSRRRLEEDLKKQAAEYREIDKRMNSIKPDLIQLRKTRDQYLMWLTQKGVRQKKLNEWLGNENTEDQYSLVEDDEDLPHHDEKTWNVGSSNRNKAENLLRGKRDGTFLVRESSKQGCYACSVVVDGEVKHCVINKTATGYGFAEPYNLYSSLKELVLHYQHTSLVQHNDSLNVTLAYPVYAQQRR

| SMILES | IC50 |
| --- | --- |
| Cc1nn(C(C)c2cc(Cl)c(C#N)c3c2OC(C)CN(C2CN(S(=O)(=O)N(C)C)C2)C3)c2ncnc(N)c12 (single isomer, unassigned) [Example 106, 3-[9-[1-(4-amino-3-methyl-1H-pyrazolo[3,4-d]pyrimidin-1-yl)ethyl]-7-chloro-6-cyano-2-methyl-2,3-dihydro-1,4-benzoxazepin-4(5H)-yl]-N,N-dimethylazetidine-1-sulfonamide] | ≤ 100 nM |
| CCNC(=O)N1CC(N2Cc3c(C#N)c(Cl)cc(C(C)n4nc(C)c5c(N)ncnc54)c3OC(C)C2)C1 (single isomer, unassigned) [Example 97, 3-[9-[1-(4-amino-3-methyl-1H-pyrazolo[3,4-d]pyrimidin-1-yl)ethyl]-7-chloro-6-cyano-2-methyl-2,3-dihydro-1,4-benzoxazepin-4(5H)-yl]-N-ethylazetidine-1-carboxamide] | ≤ 100 nM |
| Cc1nn(C(C)c2cc(Cl)c(C#N)c3c2OC(C)CN(CC(N)=O)C3)c2ncnc(N)c12 (single isomer, unassigned) [Example 109, 2-[9-[1-(4-amino-3-methyl-1H-pyrazolo[3,4-d]pyrimidin-1-yl)ethyl]-7-chloro-6-cyano-2-methyl-2,3-dihydro-1,4-benzoxazepin-4(5H)-yl]acetamide] | ≤ 100 nM |
| Cc1nn(C(C)c2cc(Cl)c(F)c3c2OC[C@H](C)N(S(C)(=O)=O)C3)c2ncnc(N)c12 (single isomer, unassigned) [Example 35] | ≤ 100 nM |
| Cc1nn(C(C)c2cc(Cl)c(C#N)c3c2OC(C)CN(C2CN(C(=O)NC(C)C)C2)C3)c2ncnc(N)c12 (single isomer, unassigned) [Example 101, 3-[9-[1-(4-amino-3-methyl-1H-pyrazolo[3,4-d]pyrimidin-1-yl)ethyl]-7-chloro-6-cyano-2-methyl-2,3-dihydro-1,4-benzoxazepin-4(5H)-yl]-N-isopropylazetidine-1-carboxamide] | ≤ 100 nM |
| Cc1nn(C(C)c2cc(Cl)c(F)c3c2OCCN(C2CN(C(=O)N(C)C)C2)C3)c2ncnc(N)c12 (stereo not shown) [Example 73, 3-[9-[1-(4-amino-3-methyl-1H-pyrazolo[3,4-d]pyrimidin-1-yl)ethyl]-7-chloro-6-fluoro-2,3-dihydro-1,4-benzoxazepin-4(5H)-yl]-N,N-dimethylazetidine-1-carboxamide] | ≤ 100 nM |
| Cc1nn(C(C)c2cc(Cl)c(F)c3c2OCCN(C2CN(S(=O)(=O)N(C)C)C2)C3)c2ncnc(N)c12 (stereo not shown) [Example 74, 3-[9-[1-(4-amino-3-methyl-1H-pyrazolo[3,4-d]pyrimidin-1-yl)ethyl]-7-chloro-6-fluoro-2,3-dihydro-1,4-benzoxazepin-4(5H)-yl]-N,N-dimethylazetidine-1-sulfonamide] | ≤ 100 nM |
| Cc1nn([C@@H](C)c2cc(Cl)c(F)c3c2O[C@@H](C)CN(C2CN(C[C@H](C)O)C2)C3)c2ncnc(N)c12 [Example 85, (2S)-1-{3-[(2S)-9-[(1S)-1-(4-amino-3-methyl-1H-pyrazolo[3,4-d]pyrimidin-l-yl)ethyl]-7-chloro-6-fluoro-2-methyl-2,3-dihydro-1,4-benzoxazepin-4(5H)-yl]azetidin-1-yl}propan-2-ol] | ≤ 100 nM |
| Cc1nn(C(C)c2cc(Cl)c(C#N)c3c2OC(C)CN(CCO)C3)c2ncnc(N)c12 (single isomer, unassigned) [Example 64, 9-[1-(4-Amino-3-methyl-1H-pyrazolo[3,4-d]pyrimidin-1-yl)ethyl]-7-chloro-4-(2-hydroxyethyl)-2-methyl-2,3,4,5-tetrahydro-1,4-benzoxazepine-6-carbonitrile] | 100 to 500 nM |
| Cc1nn([C@@H](C)c2cc(Cl)c(F)c3c2O[C@@H](C)CN(C2CN(C[C@@H](C)O)C2)C3)c2ncnc(N)c12 [Example 86, (2R)-1-{3-[(2S)-9-[(1S)-1-(4-amino-3-methyl-1H-pyrazolo[3,4-d]pyrimidin-1-yl)ethyl]-7-chloro-6-fluoro-2-methyl-2,3-dihydro-1,4-benzoxazepin-4(5H)-yl]azetidin-1-yl}propan-2-ol] | ≤ 100 nM |
| Cc1nn(C(C)c2cc(Cl)c(C#N)c3c2OC(C)CN(C2CN(S(C)(=O)=O)C2)C3)c2ncnc(N)c12 (single isomer, unassigned) [Example 94, 9-[1-(4-amino-3-methyl-1H-pyrazolo[3,4-d]pyrimidin-1-yl)ethyl]-7-chloro-2-methyl-4-[1-(methylsulfonyl)azetidin-3-yl]-2,3,4,5-tetrahydro-1,4-benzoxazepine-6-carbonitrile] | ≤ 100 nM |
| Cc1nn(C(C)c2cc(Cl)c(C#N)c3c2OC(C)CN(CC(N)=O)C3)c2ncnc(N)c12 (single isomer, unassigned) [Example 110, 2-[9-[1-(4-amino-3-methyl-1H-pyrazolo[3,4-d]pyrimidin-1-yl)ethyl]-7-chloro-6-cyano-2-methyl-2,3-dihydro-1,4-benzoxazepin-4(5H)-yl]acetamide] | ≤ 100 nM |
| COC(=O)N1CC(N2Cc3c(F)c(Cl)cc(C(C)n4nc(C)c5c(N)ncnc54)c3OC(C)C2)C1 (single isomer, unassigned) [Example 80, methyl 3-[9-[1-(4-amino-3-methyl-1H-pyrazolo[3,4-d]pyrimidin-1-yl)ethyl]-7-chloro-6-fluoro-2-methyl-2,3-dihydro-1,4-benzoxazepin-4(5H)-yl]azetidine-1-carboxylate] | ≤ 100 nM |
| Cc1nn(C(C)c2cc(Cl)c(F)c3c2O[C@@H](C)CN(C2CN(CC(N)=O)C2)C3)c2ncnc(N)c12 (single isomer, unassigned) [Example 87] | 100 to 500 nM |
| Cc1nn(C(C)c2cc(Cl)c(C#N)c3c2OCCN(CCO)C3)c2ncnc(N)c12 (stereo not shown) [Example 58, 9-[1-(4-Amino-3-methyl-1H-pyrazolo[3,4-d]pyrimidin-1-yl)ethyl]-7-chloro-4-(2-hydroxyethyl)-2,3,4,5-tetrahydro-1,4-benzoxazepine-6-carbonitrile] | ≤ 100 nM |
| Cc1nn(C(C)c2cc(Cl)c(C#N)c3c2OC(C)CN(C2CN(S(=O)(=O)N(C)C)C2)C3)c2ncnc(N)c12 (single isomer, unassigned) [Example 105, 3-[9-[1-(4-amino-3-methyl-1H-pyrazolo[3,4-d]pyrimidin-1-yl)ethyl]-7-chloro-6-cyano-2-methyl-2,3-dihydro-1,4-benzoxazepin-4(5H)-yl]-N,N-dimethylazetidine-1-sulfonamide] | ≤ 100 nM |
| Cc1nn(C(C)c2cc(Cl)c(C#N)c3c2O[C@@H](C)CN(C2CN(CCO)C2)C3)c2ncnc(N)c12 (stereo partly drawn) [Example 56, (2S)-9-[1-(4-Amino-3-methyl-1H-pyrazolo[3,4-d]pyrimidin-1-yl)ethyl]-7-chloro-4-[1-(2-hydroxyethyl)azetidin-3-yl]-2-methyl-2,3,4,5-tetrahydro-1,4-benzoxazepine-6-carbonitrile] | ≤ 100 nM |
| CC(=O)NC1CC(N2Cc3c(C#N)c(Cl)cc(C(C)n4nc(C)c5c(N)ncnc54)c3OC(C)C2)C1 (single isomer, unassigned) [Example 67, N-{3-[9-[1-(4-Amino-3-methyl-1H-pyrazolo[3,4-d]pyrimidin-1-yl)ethyl]-7-chloro-6-cyano-2-methyl-2,3-dihydro-1,4-benzoxazepin-4(5H)-yl]cyclobutyl}acetamide] | ≤ 100 nM |
| Cc1nn(C(C)c2cc(Cl)c(C#N)c3c2OC(C)CN(CC#N)C3)c2ncnc(N)c12 (single isomer, unassigned) [Example 108, 9-[1-(4-amino-3-methyl-1H-pyrazolo[3,4-d]pyrimidin-1-yl)ethyl]-7-chloro-4-(cyanomethyl)-2-methyl-2,3,4,5-tetrahydro-1,4-benzoxazepine-6-carbonitrile] | ≤ 100 nM |
| CCNC(=O)N1CC(N2Cc3c(C#N)c(Cl)cc(C(C)n4nc(C)c5c(N)ncnc54)c3OC(C)C2)C1 (single isomer, unassigned) [Example 98, 3-[9-[1-(4-amino-3-methyl-1H-pyrazolo[3,4-d]pyrimidin-1-yl)ethyl]-7-chloro-6-cyano-2-methyl-2,3-dihydro-1,4-benzoxazepin-4(5H)-yl]-N-ethylazetidine-1-carboxamide] | ≤ 100 nM |
| Cc1nn(C(C)c2cc(Cl)c(C#N)c3c2OC(C)CN(C2CN(S(C)(=O)=O)C2)C3)c2ncnc(N)c12 (single isomer, unassigned) [Example 93, 9-[1-(4-amino-3-methyl-1H-pyrazolo[3,4-d]pyrimidin-1-yl)ethyl]-7-chloro-2-methyl-4-[1-(methylsulfonyl)azetidin-3-yl]-2,3,4,5-tetrahydro-1,4-benzoxazepine-6-carbonitrile] | ≤ 100 nM |
| Cc1nn(C(C)c2cc(Cl)c(C#N)c3c2OC(C)CN(C2CN(CC(N)=O)C2)C3)c2ncnc(N)c12 (single isomer, unassigned) [Example 50, 2-{3-[9-[1-(4-Amino-3-methyl-1H-pyrazolo[3,4-d]pyrimidin-1-yl)ethyl]-7-chloro-6-cyano-2-methyl-2,3-dihydro-1,4-benzoxazepin-4(5H)-yl]azetidin-1-yl}acetamide] | ≤ 100 nM |
